Reference: ChEMBL document CHEMBL1201862, “PubChem BioAssay data set” (2004)
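Growth conditions: 96-well plates. Treatment: test compound, 48 hours, 5 concentrations. Analysis: linear interpolation between bracketing concentrations; unreached endpoints set to highest concentration. The concentration for 50% growth inhibition is given as GI50.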 Activity calls are given as the source filed them. No stated cut-off is given here; in the data, active = GI50 up to about 1.1 µM and inactive = higher.

Experiments:
Assay in all cases: NCI tumour cell line growth inhibition, 48 h
DLD-1 = test system: DLD-1
TK-10 = test system: TK-10
EKVX = test system: EKVX
HCC 2998 = test system: HCC 2998
ACHN = test system: ACHN
786-0 = test system: 786-0
M19-MEL = test system: M19-MEL
SNB-78 = test system: SNB-78
IGROV-1 = test system: IGROV-1
M14 = test system: M14
RPMI-8226 = test system: RPMI-8226
SW-620 = test system: SW-620
U-251 = test system: U-251
HOP-62 = test system: HOP-62
Malme-3M = test system: Malme-3M
NCI-H522 = test system: NCI-H522
A549 = test system: A549
OVCAR-8 = test system: OVCAR-8
SK-MEL-2 = test system: SK-MEL-2
DMS-114 = test system: DMS-114
SK-OV-3 = test system: SK-OV-3
SNB-19 = test system: SNB-19
K562 = test system: K562
OVCAR-4 = test system: OVCAR-4
COLO 205 = test system: COLO 205
KM12 = test system: KM12
UACC-257 = test system: UACC-257
HOP-92 = test system: HOP-92
UO-31 = test system: UO-31
SNB-75 = test system: SNB-75
XF498 = test system: XF498
SF-268 = test system: SF-268
SK-MEL-28 = test system: SK-MEL-28
A498 = test system: A498
NCI-H23 = test system: NCI-H23
OVCAR-3 = test system: OVCAR-3
NCI-H460 = test system: NCI-H460
SN12C = test system: SN12C
HCT-15 = test system: HCT-15
RXF 393 = test system: RXF 393
SF-539 = test system: SF-539
DMS-273 = test system: DMS-273
CAKI-1 = test system: CAKI-1
SF-295 = test system: SF-295
HCT-116 = test system: HCT-116
CCRF-CEM = test system: CCRF-CEM
LOX IMVI = test system: LOX IMVI
UACC-62 = test system: UACC-62
HL-60 = test system: HL-60
SK-MEL-5 = test system: SK-MEL-5
OVCAR-5 = test system: OVCAR-5
LXFL 529 = test system: LXFL 529
MOLT-4 = test system: MOLT-4
KM-20L2 = test system: KM-20L2
T47D = test system: T47D
MDA-MB-435 = test system: MDA-MB-435
MDA-N = test system: MDA-N
MDA-MB-231 = test system: MDA-MB-231
BT-549 = test system: BT-549
Hs-578T = test system: Hs-578T
NCI-H226 = test system: NCI-H226
SR = test system: SR
MCF7 = test system: MCF7
HT-29 = test system: HT-29
DU-145 = test system: DU-145
HOP-18 = test system: HOP-18
PC-3 = test system: PC-3
NCI/ADR-RES = test system: NCI/ADR-RES

O=c1ccc(=O)c2c(=O)c3ccccc3c(=O)c1=2
GI50 (DLD-1): 38.2 µM (inactive)
GI50 (TK-10): > 100 µM (inactive)
GI50 (EKVX): 28.7 µM (inactive)
GI50 (HCC 2998): 54.7 µM (inactive)
GI50 (ACHN): 60.3 µM (inactive)
GI50 (786-0): 39.7 µM (inactive)
GI50 (M19-MEL): 14.3 µM (inactive)
GI50 (SNB-78): 60.5 µM (inactive)
GI50 (IGROV-1): > 100 µM (inactive)
GI50 (M14): 46 µM (inactive)
GI50 (RPMI-8226): 27.5 µM (inactive)
GI50 (SW-620): 32.7 µM (inactive)
GI50 (U-251): 43.6 µM (inactive)
GI50 (HOP-62): 36.6 µM (inactive)
GI50 (Malme-3M): 26.5 µM (inactive)
GI50 (NCI-H522): 29.8 µM (inactive)
GI50 (A549): 37.4 µM (inactive)
GI50 (OVCAR-8): 27.5 µM (inactive)
GI50 (SK-MEL-2): 20.8 µM (inactive)
GI50 (DMS-114): 29 µM (inactive)
GI50 (SK-OV-3): > 100 µM (inactive)
GI50 (SNB-19): 41.3 µM (inactive)
GI50 (K562): > 100 µM (inactive)
GI50 (OVCAR-4): 61 µM (inactive)
GI50 (COLO 205): 99.3 µM (inactive)
GI50 (KM12): 37.1 µM (inactive)
GI50 (UACC-257): 30.8 µM (inactive)
GI50 (HOP-92): > 100 µM (inactive)
GI50 (UO-31): 57.8 µM (inactive)
GI50 (SNB-75): > 100 µM (inactive)
GI50 (XF498): > 100 µM (inactive)
GI50 (SF-268): 35.6 µM (inactive)
GI50 (SK-MEL-28): > 100 µM (inactive)
GI50 (A498): > 100 µM (inactive)
GI50 (NCI-H23): 70.3 µM (inactive)
GI50 (OVCAR-3): 21.2 µM (inactive)
GI50 (NCI-H460): 29.3 µM (inactive)
GI50 (SN12C): 38.5 µM (inactive)
GI50 (HCT-15): 46.2 µM
GI50 (RXF 393): 48.3 µM (inactive)
GI50 (SF-539): 26 µM (inactive)
GI50 (DMS-273): 46.7 µM (inactive)
GI50 (CAKI-1): 50 µM (inactive)
GI50 (SF-295): 34.4 µM (inactive)
GI50 (HCT-116): 20.7 µM (inactive)
GI50 (CCRF-CEM): 33 µM (inactive)
GI50 (LOX IMVI): 42.6 µM (inactive)
GI50 (UACC-62): 36.7 µM (inactive)
GI50 (HL-60): 17.2 µM (inactive)
GI50 (SK-MEL-5): 15.7 µM (inactive)
GI50 (OVCAR-5): > 100 µM (inactive)
GI50 (LXFL 529): > 100 µM (inactive)
GI50 (MOLT-4): 23 µM (inactive)

Nc1ncn([C@H]2C[C@H](O)[C@@H](CO)O2)c(=O)n1 [DECITABINE]
GI50 (KM-20L2): > 375 µM (inactive)
GI50 (DLD-1): 3.09 µM (inactive)
GI50 (T47D): 10.4 µM (inactive)
GI50 (TK-10): 46.8 µM (inactive)
GI50 (MDA-MB-435): 2.49 µM (inactive)
GI50 (MDA-N): 1.46 µM (inactive)
GI50 (EKVX): 104 µM (inactive)
GI50 (HCC 2998): 105 µM (inactive)
GI50 (ACHN): 21.5 µM (inactive)
GI50 (786-0): 9.42 µM (inactive)
GI50 (M19-MEL): 5.86 µM (inactive)
GI50 (SNB-78): 373 µM (inactive)
GI50 (IGROV-1): 102 µM (inactive)
GI50 (M14): 9.59 µM (inactive)
GI50 (MDA-MB-231): 17.8 µM (inactive)
GI50 (RPMI-8226): 54.7 µM (inactive)
GI50 (SW-620): 29 µM (inactive)
GI50 (U-251): 102 µM (inactive)
GI50 (HOP-62): 111 µM (inactive)
GI50 (Malme-3M): 127 µM (inactive)
GI50 (NCI-H522): 36.7 µM (inactive)
GI50 (BT-549): 13.6 µM (inactive)
GI50 (A549): 21.4 µM (inactive)
GI50 (OVCAR-8): 16.9 µM (inactive)
GI50 (SK-MEL-2): 38.1 µM (inactive)
GI50 (DMS-114): 371 µM (inactive)
GI50 (Hs-578T): 3.32 µM (inactive)
GI50 (SK-OV-3): 76.2 µM (inactive)
GI50 (SNB-19): 138 µM (inactive)
GI50 (K562): 18.7 µM (inactive)
GI50 (NCI-H226): 68.7 µM (inactive)
GI50 (OVCAR-4): 104 µM (inactive)
GI50 (COLO 205): 37.7 µM (inactive)
GI50 (SR): 2.67 µM (inactive)
GI50 (KM12): 72.6 µM (inactive)
GI50 (UACC-257): 34.9 µM (inactive)
GI50 (MCF7): 74.8 µM (inactive)
GI50 (HOP-92): 175 µM (inactive)
GI50 (UO-31): 298 µM (inactive)
GI50 (SNB-75): 82.8 µM (inactive)
GI50 (XF498): 25.5 µM (inactive)
GI50 (HT-29): 51.3 µM (inactive)
GI50 (DU-145): 8.79 µM (inactive)
GI50 (SF-268): 119 µM (inactive)
GI50 (SK-MEL-28): 97.3 µM (inactive)
GI50 (A498): 135 µM (inactive)
GI50 (NCI-H23): 118 µM (inactive)
GI50 (HOP-18): > 99.1 µM (inactive)
GI50 (OVCAR-3): 76.6 µM (inactive)
GI50 (NCI-H460): 6.59 µM (inactive)
GI50 (SN12C): 83.8 µM (inactive)
GI50 (HCT-15): 2.77 µM
GI50 (RXF 393): 136 µM (inactive)
GI50 (SF-539): 92 µM (inactive)
GI50 (CAKI-1): 219 µM (inactive)
GI50 (SF-295): 102 µM (inactive)
GI50 (HCT-116): 48.9 µM (inactive)
GI50 (PC-3): 9.57 µM (inactive)
GI50 (CCRF-CEM): 4.59 µM (inactive)
GI50 (LOX IMVI): 99.5 µM (inactive)
GI50 (UACC-62): 83.8 µM (inactive)
GI50 (HL-60): > 24.8 µM (inactive)
GI50 (SK-MEL-5): 74.6 µM (inactive)
GI50 (OVCAR-5): 106 µM (inactive)
GI50 (NCI/ADR-RES): > 347 µM (inactive)
GI50 (MOLT-4): 11.6 µM (inactive)
